Measurements: ChEMBL document CHEMBL3763037 (J Med Chem, 2016)

Key:
[1] = Cytotoxicity against BRCA2-deficient human Capan1 cells; format: functional, cell-based, CAPAN-1
[2] = biological target: PARP 1, 2 and 3 (Homo sapiens, UniProt P09874+Q9Y6F1+Q9UGN5); experiment: Inhibition of PARP in human LoVo cells assessed as inhibition of poly(ADP)-ribose polymerization for 30 mins by fluorescence assay; format: cell-based
[3] = biological target: Poly [ADP-ribose] polymerase 1 (Homo sapiens, UniProt P09874); experiment: Inhibition of human PARP1 using [3H]NAD as substrate after 1 min by microplate scintillation counting analysis
Chain of Poly [ADP-ribose] polymerase 1 (P09874 whole entry): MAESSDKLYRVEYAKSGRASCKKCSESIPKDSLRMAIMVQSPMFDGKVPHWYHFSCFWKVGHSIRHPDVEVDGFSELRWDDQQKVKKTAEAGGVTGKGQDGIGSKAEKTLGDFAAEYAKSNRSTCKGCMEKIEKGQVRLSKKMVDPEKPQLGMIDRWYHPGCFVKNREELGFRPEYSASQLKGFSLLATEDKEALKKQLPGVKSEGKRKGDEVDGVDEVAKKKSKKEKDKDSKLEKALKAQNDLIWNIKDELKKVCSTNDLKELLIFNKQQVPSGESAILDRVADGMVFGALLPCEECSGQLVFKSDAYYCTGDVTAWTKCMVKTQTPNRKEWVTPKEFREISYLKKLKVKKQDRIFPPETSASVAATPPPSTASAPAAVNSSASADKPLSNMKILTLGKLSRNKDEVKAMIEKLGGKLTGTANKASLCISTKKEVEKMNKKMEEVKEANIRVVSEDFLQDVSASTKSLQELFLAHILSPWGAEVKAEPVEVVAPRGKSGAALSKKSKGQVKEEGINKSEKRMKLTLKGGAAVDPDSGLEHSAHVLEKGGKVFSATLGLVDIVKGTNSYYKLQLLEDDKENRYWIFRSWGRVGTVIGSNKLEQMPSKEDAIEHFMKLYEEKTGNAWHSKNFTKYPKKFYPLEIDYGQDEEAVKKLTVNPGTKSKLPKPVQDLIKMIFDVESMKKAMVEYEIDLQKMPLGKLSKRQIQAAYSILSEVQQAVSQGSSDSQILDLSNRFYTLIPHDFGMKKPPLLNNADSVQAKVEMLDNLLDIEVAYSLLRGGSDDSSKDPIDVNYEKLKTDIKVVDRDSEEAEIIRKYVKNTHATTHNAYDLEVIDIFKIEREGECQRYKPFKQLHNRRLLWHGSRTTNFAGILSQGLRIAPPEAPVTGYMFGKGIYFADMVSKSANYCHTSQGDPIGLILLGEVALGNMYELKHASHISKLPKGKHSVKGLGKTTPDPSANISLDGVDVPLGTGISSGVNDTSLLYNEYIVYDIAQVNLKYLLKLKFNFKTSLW

[4] = Half life in rat liver microsomes; format: ADME
[5] = tested on: LoVo; experiment: cells; conditions: Homo sapiens, 120 h
[6] = Terminal eliminational half life in Sprague-Dawley rat at 5 mg/kg, iv by LC-MS/MS analysis; format: ADME, organism-based; conditions: Sprague-Dawley, in vivo, read-out: beta t1/2 (converted)
[7] = Cmax in Sprague-Dawley rat at 10 mg/kg, po by LC-MS/MS analysis; format: ADME, organism-based; design: dose 10 mg/kg, route oral; conditions: in vivo
[8] = AUC in Sprague-Dawley rat at 10 mg/kg, po by LC-MS/MS analysis; format: ADME, organism-based; conditions: Sprague-Dawley, in vivo
[9] = Volume of distribution at steady state in Sprague-Dawley rat at 5 mg/kg, iv by LC-MS/MS analysis; format: ADME, organism-based; conditions: in vivo, read-out: Vdss
[10] = Oral bioavailability in Sprague-Dawley rat at 10 mg/kg by LC-MS/MS analysis; format: ADME, organism-based; conditions: Sprague-Dawley, in vivo
[11] = Clearance in Sprague-Dawley rat at 5 mg/kg, iv by LC-MS/MS analysis; format: ADME, organism-based; conditions: in vivo
[12] = tested on: MRC5; experiment: Cytotoxicity against human MRC5 cells; format: cell-based; conditions: mrc5

Structure (SMILES) | EC50 ([1]; Homo sapiens, CAPAN-1) | EC50 [2] | IC50 [3] | half-life [4] | GI50 [5] | further results
Cn1ccnc1C1c2n[nH]c(=O)c3cccc(c23)NC1c1ccccc1 (centres undefined) | 360 nM | 16.9 nM | 2.35 nM | 1.48 h | 97000 nM | 
Cn1nccc1C1c2n[nH]c(=O)c3cc(F)cc(c23)NC1c1ccc(F)cc1 (centres undefined) | 956 nM | 9.33 nM | 1.84 nM |  | > 400000 nM | 
O=c1[nH]nc2c3c(cccc13)NC(c1ccc(CN3CCC3)cc1)C2c1ccc(F)cc1 (centres undefined) | 276 nM | 3.81 nM | 3.09 nM | 1.48 h | 95000 nM | 
CN(C)Cc1ccc(C2Nc3cccc4c(=O)[nH]nc(c34)C2c2ccc(F)cc2)cc1 (centres undefined) | 1730 nM | 18.5 nM | 2.48 nM | 0.733 h | 76000 nM | 
O=c1[nH]nc2c3c(cccc13)NC(c1ccccc1)C2c1ccccc1 (centres undefined) | 2970 nM | 58.4 nM | 6.1 nM |  | 324000 nM | 
Cn1ncnc1[C@H]1c2n[nH]c(=O)c3cccc(c23)N[C@@H]1c1ccc(F)cc1 | 37 nM | 5.1 nM | 1.46 nM |  | 41 nM | half-life [6]: 2.44 h; Cmax [7]: 7770 ng/mL; AUC [8]: 39900 ng·h/mL; Vd [9]: 0.39 L/kg; bioavailability [10]: 47%; clearance [11]: 2 mL/min/kg
Cn1ncnc1[C@@H]1c2n[nH]c(=O)c3cccc(c23)N[C@H]1c1ccc(F)cc1 | 1880 nM | 250 nM | 68.9 nM |  | 3260 nM | 
CN(C)Cc1ccc(C2Nc3cc(F)cc4c(=O)[nH]nc(c34)C2c2ccc(F)cc2)cc1 (centres undefined) | 134 nM | 6.1 nM | 2.63 nM | 1.37 h | 94000 nM | 
O=c1[nH]nc2c3c(cccc13)NC(c1ccc(CN3CCCC3)cc1)C2c1ccccc1 (centres undefined) | 298 nM | 9.47 nM | 4.02 nM | 0.133 h | 90000 nM | 
O=c1[nH]nc2c3c(cccc13)NC(c1ccc(F)cc1)C2c1nccs1 (centres undefined) |  | 24.4 nM | 7.35 nM |  | 106000 nM | 
CN(C)Cc1ccc(C2Nc3cccc4c(=O)[nH]nc(c34)C2c2ccc(CN(C)C)cc2)cc1 (centres undefined) | 979 nM | 18.6 nM | 3.89 nM | > 2 h | 63000 nM | 
O=c1[nH]nc2c3c(cccc13)NC(c1ccc(CN3CCC3)cc1)C2c1ccccc1 (centres undefined) | 434 nM | 9.7 nM | 3.63 nM | 0.133 h | 89000 nM | 
Cn1ccnc1C1Nc2cccc3c(=O)[nH]nc(c23)C1c1ccccc1 (centres undefined) |  |  | 9.45 nM |  | > 400000 nM | 
CN(C)Cc1cccc(C2Nc3cccc4c(=O)[nH]nc(c34)C2c2ccccc2)c1 (centres undefined) |  |  | 2.63 nM |  | 128000 nM | 
Cn1ccnc1[C@@H]1c2n[nH]c(=O)c3cccc(c23)N[C@H]1c1ccc(F)cc1 | 6310 nM | 285 nM | 136 nM |  | > 10000 nM | 
Cn1ccnc1[C@H]1c2n[nH]c(=O)c3cccc(c23)N[C@@H]1c1ccc(F)cc1 | 305 nM | 6.9 nM | 2.25 nM |  | 261 nM | half-life [6]: 2.3 h; Cmax [7]: 10500 ng/mL; AUC [8]: 36500 ng·h/mL; Vd [9]: 0.5 L/kg; bioavailability [10]: 91%; clearance [11]: 4 mL/min/kg
C[C@]1(c2nc3c(C(N)=O)cccc3[nH]2)CCCN1 [VELIPARIB] |  |  |  |  | 6200 nM | EC50 [12]: > 10000 nM; EC50 ([1]; capan-1): > 10000 nM
Cn1ccnc1C1c2n[nH]c(=O)c3cc(Cl)cc(c23)NC1c1ccccc1 (centres undefined) | 785 nM | 121 nM | 6.18 nM |  | 111000 nM | 
CN(C)Cc1ccc(C2Nc3cccc4c(=O)[nH]nc(c34)C2c2ccccc2)cc1 (centres undefined) | 387 nM | 6 nM | 2.36 nM | 0.2 h | 59000 nM | 
O=c1[nH]nc2c3c(cccc13)NC(c1ccc(CN3CCCC3)cc1)C2c1ccc(F)cc1 (centres undefined) | 454 nM | 23 nM | 2.02 nM | 1.48 h | 134000 nM | 
Cn1ncnc1[C@@H]1c2n[nH]c(=O)c3cc(F)cc(c23)N[C@H]1c1ccc(F)cc1 | 1140 nM |  |  |  | 1810 nM | 
Cn1ncnc1C1c2n[nH]c(=O)c3cccc(c23)NC1c1ccccc1 (centres undefined) | 170 nM | 149 nM | 2.4 nM | 6.9 h | > 400000 nM | 
O=c1[nH]nc2c3c(cccc13)NC(c1cccnc1)C2c1cccnc1 (centres undefined) |  |  | 17.7 nM |  |  | 
Cn1ccnc1[C@@H]1c2n[nH]c(=O)c3cc(F)cc(c23)N[C@H]1c1ccc(F)cc1 | 124 nM | 164 nM | 22.4 nM |  | 104 nM | 
Cn1ccnc1C1c2n[nH]c(=O)c3cccc(c23)NC1c1ccc(C(F)(F)F)cc1 (centres undefined) | 1100 nM | 27.2 nM | 5.27 nM |  | 192000 nM | 
Cn1cnnc1C1c2n[nH]c(=O)c3cccc(c23)NC1c1ccccc1 (centres undefined) | 4340 nM |  | 2.76 nM |  | > 400000 nM | 
